This note sets out measurements from patent US20080050720A1 (priority 2003, published 2008).

One assay has as its system YMR325W gene reporter. As to the kind of experiment: 96-well liquid high-throughput like assay with YMR325W-GFP reporter strain. The format is cell-based, S. cerevisiae. As to conditions: serial 1 to 2 dilutions; initial Lovastatin 30 ug/ml, Miconazole 25 ug/ml, Fenpropimorph 50 ug/ml, Tunicamycin 25 ug/ml; 30° C., about 24 hours. The procedure:
1. A YMR325W gene reporter was transformed into wild-type S. Cerevisiae strain ABY12 and grown on solid Casamino Acids media plates.
2. A culture from the solid media plate was used to inoculate a 50 ml liquid culture in Casamino Acids media. The liquid culture was grown overnight at 30° C. to an OD600=8, and then was diluted in Casamino Acids media to an OD600=1.
3. Drug-like agents Lovastatin, Miconazole, and Fenpropimorph, sterol biosynthesis inhibitors that target different molecular steps in the sterol biosynthesis pathway, and UDP-N-acetyl-glucosamine-1-P transferase (GPT) inhibitor Tunicamycin, a negative control, were used in the assay. Each of the four drugs was added to individual wells (one drug per well) in the second column of a 96-well assay plate and serially diluted (1 to 2) into Casamino Acids media plus 2% DMSO in columns 3-12. The initial concentrations of the drugs were as follows: Lovastatin: 30 ug/ml, Miconazole: 25 ug/ml, Fenpropimorph: 50 ug/ml, and Tunicamycin: 25 ug/ml. The first column of the plate was used as a “no drug” control, containing only Casamino Acids media plus 2% DMSO. Each well contained a final volume of 100 ul of media and/or media plus drug.
4. […]
5. After the 24 hour incubation the 96-well assay plate was imaged in a Molecular Dynamics Fluorimager SI to measure the fluorescence from the YMR325W-GFP reporter.

The test system of assay [1] is lawn of the YMR325W reporter strain (S. Cerevisiae strain ABY12). The assay is described as follows: Solid plate halo assay, growth of reporter strain lawn. The format is cell-based. The note with it: paper disc; 20 ul of 50 ug/ml Miconazole or 20 ul of 1500 ug/ml Lovastatin; 30° C. How it is done: (§1) The assay was designed to mimic assays of natural product producing strains in the presence of ABY12 reporter carrying strains.
(§2) 1. A YMR325W reporter was transformed into wild-type S. Cerevisiae strain ABY12 and grown on a solid Casamino Acids media plate.
(§3) 2. A culture from the solid media plate was used to inoculate a 50 ml liquid culture in Casamino Acids media. The liquid culture was grown overnight at 30° C. to a final OD600=8, and then diluted in Casamino Acids media to an OD600=1, or about 1×10^7 cells per milliliter. Five-hundred microliters of cell culture (about 5×10^6 cells) was spread evenly over the surface of each of two 100 mm solid agar-Casamino-acids-media plates to form a lawn of the YMR325W reporter strain on each plate.
3. Two 6 mm diameter blank paper discs (Becton Dickinson #231039), evenly spaced apart, were placed on top of the agar surface of each plate. On one plate 20 ul of 50 ug/ml of the sterol biosynthesis inhibitor Miconazole was spotted onto one of the two paper discs and 20 ul of 10% DMSO was spotted on the other paper disc as a control. On the other plate 20 ul of 1500 ug/ml Lovastatin was spotted onto one of the two paper discs and 20 ul of 10% DMSO was spotted on the other paper disc as a control. […]
(§4) 4. After a 72 hour incubation the assay plates were imaged in a Molecular Dynamics Fluorimager SI to measure the fluorescence from the GFP reporters.

The subject of the next assay is YMR325W reporter. The assay is described as follows: Solid plate halo assay, fluorescence from the GFP reporter. It counts as cell-based, S. cerevisiae. As to conditions: for induction of YMR325W reporter (zone of high fluorescence at the edge of halo): paper disc, 20 ul of 50 ug/ml Miconazole or 20 ul of 1500 ug/ml Lovastatin, 30° C. The procedure:
as §1, §2, §3
3. Two 6 mm diameter blank paper discs (Becton Dickinson #231039), evenly spaced apart, were placed on top of the agar surface of each plate. On one plate 20 ul of 50 ug/ml of the sterol biosynthesis inhibitor Miconazole was spotted onto one of the two paper discs and 20 ul of 10% DMSO was spotted on the other paper disc as a control. On the other plate 20 ul of 1500 ug/ml Lovastatin was spotted onto one of the two paper discs and 20 ul of 10% DMSO was spotted on the other paper disc as a control. The plates were incubated at 30° C. overnight.
as §4

Tunicamycin: the “fluorescence from the YMR325W-GFP reporter” value in the assay on YMR325W gene reporter was “No increase in fluorescence”.

As for `CC[C@H](C)C(=O)O[C@H]1C[C@@H](C)C=C2C=C[C@H](C)[C@H](CC[C@@H]3C[C@@H](O)CC(=O)O3)[C@H]21` [Lovastatin], in assay [1], the “growth inhibition of the lawn (halo of no growth)” value is “inhibited the growth”. Moreover, the “size of zone of fluorescence, Lovastatin compared with Miconazole” value in the assay with YMR325W reporter (20 ul of 1500 ug/ml Lovastatin versus 20 ul of 50 ug/ml Miconazole) is reported as “much larger zone of fluorescence”. In addition, in the assay on YMR325W reporter, the “induction of YMR325W reporter (zone of high fluorescence at the edge of halo)” value was “significantly induced”.

With `Clc1ccc(COC(Cn2ccnc2)c2ccc(Cl)cc2Cl)c(Cl)c1` (stereo not drawn) [Miconazole], in assay [1], the “growth inhibition of the lawn (halo of no growth)” value was “inhibited the growth”. Also, the “induction of YMR325W reporter (zone of high fluorescence at the edge of halo)” value in the assay with YMR325W reporter is “significantly induced”.
